# Data from patent US5230998A, “Method for the prescreening of drugs targeted to the V3 hypervariable loop of the HIV-1 envelope glycoprotein gp 120” (priority 1991, dated 1993).
# Key:
# BH 10 peptide = molecular target: T1, BH 10 peptide (Human immunodeficiency virus type 1 BH10, UniProt P03375); assay: Attachment of ATA to V3 hypervariable loop peptides of distinct HIV-1 isolates (FIG. 4B); format: binding, HIV-1 BH 10
# T1 construct: cut from Env gp160
# Method: FIG. 4 comprises bar graphs depicting the interaction of aurintricarboxylic acid (ATA) with full length V3 hypervariable loop peptides from gp120 of distinct HIV-1 isolates (clones). FIG. 4A: Inhibitory effects of ATA (50 μg/ml) on the reaction between peptide-coated wells and homologous anti-peptide antisera (diluted 1:1,000). FIG. 4B: attachment of ATA to distinct V3 hypervariable loop peptide-coated wells as determined by double antibody RIA using rabbit antiserum against ATA.
# ATA was also added to a control peptide, (518-542), and to wells coated with gelatin only. After incubation for 4 hours at 20° C., excess ATA was removed, the wells were washed with TS and attached ATA was determined by double-antibody RIA using serial dilutions of the anti-ATA antiserum. Similar tests were carried out with serum from the same rabbit before immunization with the ATA-BSA conjugate; the corresponding results (100-450 cpm) were subtracted from cpm corresponding to RIA results obtained with the anti-ATA antiserum. For additional assays aimed at determining the binding of ATA to synthetic peptides from gp120 and gp41 of HIV-1 BH 10 and to V3 hypervariable loop peptides from 20 additional HIV-1 isolates, anti-ATA antiserum was used at a final dilution of 1:800.
# [1] = molecular target: gp120 of the same virus subtype expressed in E. coli (HIV-1 M:B_ARV2/SF2, UniProt P03378); assay: Interaction of ATA with gp120 (non-glycosylated); format: binding, HIV-1 SF2; settings: data not shown
# Chain of gp120 of the same virus subtype expressed in E. coli (P03378 32-509): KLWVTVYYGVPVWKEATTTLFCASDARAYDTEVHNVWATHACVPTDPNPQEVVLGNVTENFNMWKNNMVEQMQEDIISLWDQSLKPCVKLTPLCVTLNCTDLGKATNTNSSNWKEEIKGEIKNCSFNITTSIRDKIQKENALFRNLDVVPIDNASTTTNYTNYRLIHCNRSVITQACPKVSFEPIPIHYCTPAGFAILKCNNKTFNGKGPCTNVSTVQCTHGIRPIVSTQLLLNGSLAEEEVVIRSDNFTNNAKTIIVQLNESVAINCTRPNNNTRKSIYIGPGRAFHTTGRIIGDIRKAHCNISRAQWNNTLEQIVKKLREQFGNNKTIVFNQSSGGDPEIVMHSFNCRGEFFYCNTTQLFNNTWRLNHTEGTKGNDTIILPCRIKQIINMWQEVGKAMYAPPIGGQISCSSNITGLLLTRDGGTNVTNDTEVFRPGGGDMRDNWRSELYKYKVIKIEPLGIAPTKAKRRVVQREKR
# T1 sequence (P03375 296-331): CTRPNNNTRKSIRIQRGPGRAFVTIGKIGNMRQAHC
smiles,measurement,setting,value
"O=C(O)C1=CC(=C(c2ccc(O)c(C(=O)O)c2)c2ccc(O)c(C(=O)O)c2)C=CC1=O [substance #122, aurintricarboxylic acid]",ATA binding to V3 peptide,BH 10 peptide,bound the highest levels of ATA
same,interaction of ATA with gp120,[1],not with gp120 of the same virus subtype expressed in E. coli
